According to US20070243558A1, “Peptide Stabilization” (priority 2004, published 2007):
Where two headings read alike, the source gives them in different places.

Tests used:
[1] = room temperature
Method: The effect of adding DMSO was tested on pepsinogen I, pepsinogen II, Helicobacter pylori antibodies and gastrin-17. The results are indicated at day 0 and day 3.

[2] = Storage stability of analytes in serum sample without stabilizer (background statement); type: physicochemical; conditions: serum sample
Excerpt: In connection with said determinations and sample handling the poor stability of gastrin-17 has proven to be a problem, due to the fact that it decomposes rapidly in the sample. […] This is in contrast to pepsinogen I and II, which retain their activity at room temperature for many days, and Helicobacter pylori antibodies, which survive for at least three days under refrigerator conditions.

[3] = for gastrin-17 concentration, Avg.: average of days 0-3
[4] = Stability of the same analytes in serum samples, with and without 5% DMSO (Table 3); type: physicochemical
Excerpt: Table 3 is a test corresponding to the test of Table 2, but where the ten samples to be tested were serum samples rather than plasma samples.

[5] = Preservation of gastrin-17 in 5% DMSO/serum or plasma solutions; type: physicochemical; conditions: 5% (vol./vol.) DMSO/serum or plasma solutions, even at room temperature

With gastrin-17 [Gastrin 17] as the substance, how does the “Gastrin 17 concentration” value ([1]; EDTA-plasma sample PL466s, 0% DMSO, day 0) read?
The value was 7.6 pmol/L.

What about the “Gastrin 17 concentration” value ([1]; EDTA-plasma sample PL466s, 0% DMSO, day 3) of the same substance?
The value was 1.6 pmol/L.

And the “Gastrin 17 concentration” value ([1]; EDTA-plasma sample PL466s, 5% DMSO, day 0)?
Its value is 7.8 pmol/L.

What about the “Gastrin 17 concentration” value ([1]; EDTA-plasma sample PL466s, 5% DMSO, day 3) of the same substance?
The value was 6.9 pmol/L.

And the “Gastrin 17 concentration” value ([1]; EDTA-plasma sample PL467s, 0% DMSO, day 0)?
The value was 5.3 pmol/L.

And the “Gastrin 17 concentration” value ([1]; EDTA-plasma sample PL467s, 0% DMSO, day 3)?
The value was 2.9 pmol/L.

And the “Gastrin 17 concentration” value ([1]; EDTA-plasma sample PL467s, 5% DMSO, day 0)?
Its value is 4.4 pmol/L.

What about the “Gastrin 17 concentration” value ([1]; EDTA-plasma sample PL467s, 5% DMSO, day 3) of the same substance?
Its value is 4.5 pmol/L.

And the “Gastrin 17 concentration” value ([1]; EDTA-plasma sample PL471s, 0% DMSO, day 0)?
The value was 1.3 pmol/L.

What about the “Gastrin 17 concentration” value ([1]; EDTA-plasma sample PL471s, 0% DMSO, day 3) of the same substance?
The value was 0.2 pmol/L.

What about the “Gastrin 17 concentration” value ([1]; EDTA-plasma sample PL471s, 5% DMSO, day 0) of the same substance?
Its value is 1.7 pmol/L.

And the “Gastrin 17 concentration” value ([1]; EDTA-plasma sample PL471s, 5% DMSO, day 3)?
Its value is 1.4 pmol/L.

And the “Gastrin 17 concentration” value ([1]; EDTA-plasma sample PL472s, 0% DMSO, day 0)?
The value was 20 pmol/L.

And the “Gastrin 17 concentration” value ([1]; EDTA-plasma sample PL472s, 0% DMSO, day 3)?
Its value is 2.9 pmol/L.

And the “Gastrin 17 concentration” value ([1]; EDTA-plasma sample PL472s, 5% DMSO, day 0)?
The value was 21 pmol/L.

And the “Gastrin 17 concentration” value ([1]; EDTA-plasma sample PL472s, 5% DMSO, day 3)?
The value was 14.3 pmol/L.

What about the “Gastrin 17 concentration” value ([1]; EDTA-plasma sample PL473s, 0% DMSO, day 0) of the same substance?
The value was 3.7 pmol/L.

And the “Gastrin 17 concentration” value ([1]; EDTA-plasma sample PL473s, 0% DMSO, day 3)?
The value was 0.6 pmol/L.

What about the “Gastrin 17 concentration” value ([1]; EDTA-plasma sample PL473s, 5% DMSO, day 0) of the same substance?
Its value is 3.8 pmol/L.

And the “Gastrin 17 concentration” value ([1]; EDTA-plasma sample PL473s, 5% DMSO, day 3)?
The value was 3.4 pmol/L.

And the “state of the analyte in a serum sample after a day” value ([2]; after a day, refrigerating conditions)?
Its value is “degraded completely”.

What about the “time after which the concentration in a serum sample starts to decrease clearly” value ([2]; no stabilizer) of the same substance?
The value was “three”.

And the “gastrin-17 concentration, Avg.” value ([3]; EDTA-plasma sample PL459S, 0% DMSO)?
Its value is 4.1 pmol/L.

What about the gastrin-17 concentration ([3]; EDTA-plasma sample PL459S, 0% DMSO, day 0) of the same substance?
Its gastrin-17 concentration is 8.5 pmol/L.

And the gastrin-17 concentration ([3]; EDTA-plasma sample PL459S, 0% DMSO, day 1)?
Its gastrin-17 concentration is 3.6 pmol/L.

What about the gastrin-17 concentration ([3]; EDTA-plasma sample PL459S, 0% DMSO, day 2) of the same substance?
The gastrin-17 concentration was 2.7 pmol/L.

What about the gastrin-17 concentration ([3]; EDTA-plasma sample PL459S, 0% DMSO, day 3) of the same substance?
Its gastrin-17 concentration is 1.5 pmol/L.

What about the “gastrin-17 concentration, Avg.” value ([3]; EDTA-plasma sample PL459S, 5% DMSO) of the same substance?
The value was 5.6 pmol/L.

And the gastrin-17 concentration ([3]; EDTA-plasma sample PL459S, 5% DMSO, day 0)?
Its gastrin-17 concentration is 6.3 pmol/L.

What about the gastrin-17 concentration ([3]; EDTA-plasma sample PL459S, 5% DMSO, day 1) of the same substance?
Its gastrin-17 concentration is 5.4 pmol/L.

What about the gastrin-17 concentration ([3]; EDTA-plasma sample PL459S, 5% DMSO, day 2) of the same substance?
Its gastrin-17 concentration is 5.2 pmol/L.

And the gastrin-17 concentration ([3]; EDTA-plasma sample PL459S, 5% DMSO, day 3)?
Its gastrin-17 concentration is 5.4 pmol/L.

And the “gastrin-17 concentration, Avg.” value ([3]; EDTA-plasma sample PL460s, 0% DMSO)?
Its value is 6.0 pmol/L.

What about the gastrin-17 concentration ([3]; EDTA-plasma sample PL460s, 0% DMSO, day 0) of the same substance?
Its gastrin-17 concentration is 7.9 pmol/L.

And the gastrin-17 concentration ([3]; EDTA-plasma sample PL460s, 0% DMSO, day 1)?
Its gastrin-17 concentration is 5.8 pmol/L.

And the gastrin-17 concentration ([3]; EDTA-plasma sample PL460s, 0% DMSO, day 2)?
Its gastrin-17 concentration is 5.8 pmol/L.

And the gastrin-17 concentration ([3]; EDTA-plasma sample PL460s, 0% DMSO, day 3)?
The gastrin-17 concentration was 4.6 pmol/L.

What about the “gastrin-17 concentration, Avg.” value ([3]; EDTA-plasma sample PL460s, 5% DMSO) of the same substance?
The value was 6.0 pmol/L.

And the gastrin-17 concentration ([3]; EDTA-plasma sample PL460s, 5% DMSO, day 0)?
Its gastrin-17 concentration is 6.3 pmol/L.

And the gastrin-17 concentration ([3]; EDTA-plasma sample PL460s, 5% DMSO, day 1)?
The gastrin-17 concentration was 5.5 pmol/L.

What about the gastrin-17 concentration ([3]; EDTA-plasma sample PL460s, 5% DMSO, day 2) of the same substance?
Its gastrin-17 concentration is 6.1 pmol/L.

And the gastrin-17 concentration ([3]; EDTA-plasma sample PL460s, 5% DMSO, day 3)?
Its gastrin-17 concentration is 6.0 pmol/L.

And the “gastrin-17 concentration, Avg.” value ([3]; EDTA-plasma sample PL461s, 0% DMSO)?
Its value is 12.4 pmol/L.

And the gastrin-17 concentration ([3]; EDTA-plasma sample PL461s, 0% DMSO, day 0)?
Its gastrin-17 concentration is 26.0 pmol/L.

And the gastrin-17 concentration ([3]; EDTA-plasma sample PL461s, 0% DMSO, day 1)?
The gastrin-17 concentration was 8.7 pmol/L.

What about the gastrin-17 concentration ([3]; EDTA-plasma sample PL461s, 0% DMSO, day 2) of the same substance?
The gastrin-17 concentration was 8.5 pmol/L.

And the gastrin-17 concentration ([3]; EDTA-plasma sample PL461s, 0% DMSO, day 3)?
The gastrin-17 concentration was 6.1 pmol/L.

And the “gastrin-17 concentration, Avg.” value ([3]; EDTA-plasma sample PL461s, 5% DMSO)?
Its value is 21.8 pmol/L.

And the gastrin-17 concentration ([3]; EDTA-plasma sample PL461s, 5% DMSO, day 0)?
Its gastrin-17 concentration is 24.3 pmol/L.

And the gastrin-17 concentration ([3]; EDTA-plasma sample PL461s, 5% DMSO, day 1)?
The gastrin-17 concentration was 21.6 pmol/L.

What about the gastrin-17 concentration ([3]; EDTA-plasma sample PL461s, 5% DMSO, day 2) of the same substance?
Its gastrin-17 concentration is 19.9 pmol/L.

What about the gastrin-17 concentration ([3]; EDTA-plasma sample PL461s, 5% DMSO, day 3) of the same substance?
The gastrin-17 concentration was 21.2 pmol/L.

What about the “Gastrin 17 concentration” value ([4]; serum sample PL411s, 0% DMSO) of the same substance?
Its value is 33.4 pmol/L.

What about the “Gastrin 17 concentration” value ([4]; serum sample PL411s, 5% DMSO) of the same substance?
Its value is 32.5 pmol/L.

And the “Gastrin 17 concentration” value ([4]; serum sample PL420b, 0% DMSO)?
Its value is 24.1 pmol/L.

And the “Gastrin 17 concentration” value ([4]; serum sample PL420b, 5% DMSO)?
Its value is 20.1 pmol/L.

What about the “Gastrin 17 concentration” value ([4]; serum sample PL426s, 0% DMSO) of the same substance?
Its value is 1.1 pmol/L.

And the “Gastrin 17 concentration” value ([4]; serum sample PL426s, 5% DMSO)?
The value was 1.9 pmol/L.

And the “Gastrin 17 concentration” value ([4]; serum sample PL438s, 0% DMSO)?
The value was 9.3 pmol/L.

And the “Gastrin 17 concentration” value ([4]; serum sample PL438s, 5% DMSO)?
The value was 9.8 pmol/L.

What about the “Gastrin 17 concentration” value ([4]; serum sample PL439s, 0% DMSO) of the same substance?
The value was 7.4 pmol/L.

And the “Gastrin 17 concentration” value ([4]; serum sample PL439s, 5% DMSO)?
Its value is 8.5 pmol/L.

What about the “Gastrin 17 concentration” value ([4]; serum sample PL447b, 0% DMSO) of the same substance?
Its value is 18.2 pmol/L.

And the “Gastrin 17 concentration” value ([4]; serum sample PL447b, 5% DMSO)?
Its value is 21.7 pmol/L.

And the “Gastrin 17 concentration” value ([4]; serum sample PL454s, 0% DMSO)?
Its value is 4.4 pmol/L.

And the “Gastrin 17 concentration” value ([4]; serum sample PL454s, 5% DMSO)?
Its value is 5.6 pmol/L.

And the “Gastrin 17 concentration” value ([4]; serum sample PL455b, 0% DMSO)?
Its value is 15.6 pmol/L.

What about the “Gastrin 17 concentration” value ([4]; serum sample PL455b, 5% DMSO) of the same substance?
The value was 17.6 pmol/L.

And the “Gastrin 17 concentration” value ([4]; serum sample PL457b, 0% DMSO)?
Its value is 3.3 pmol/L.

What about the “Gastrin 17 concentration” value ([4]; serum sample PL457b, 5% DMSO) of the same substance?
Its value is 6.0 pmol/L.

And the “Gastrin 17 concentration” value ([4]; serum sample PL458s, 0% DMSO)?
Its value is 5.4 pmol/L.

And the “Gastrin 17 concentration” value ([4]; serum sample PL458s, 5% DMSO)?
Its value is 2.2 pmol/L.

What about the “activity in samples with added 5% (vol./vol.) of DMSO” value ([4]; serum samples) of the same substance?
Its value is “generally retained activity”.

And the “time for which gastrin-17 was preserved” value [5]?
Its value is “at least three”.
